From paper PMC12670400, “LEKTI-Grafted Sunflower Trypsin Inhibitor: A Potential Therapeutic for Skin Diseases” (Journal of Medicinal Chemistry, 2025)
Bridge positions count the residues as written; N and C are the ends. Peptide text beside a SMILES is read from it.

Assays:
[1] = test system: endogenous KLK5 of healthy donor keratinocytes; assay: KLK5 protease activity assay for culture medium of healthy donor keratinocytes; format: biochemical, human; settings: 100 nM, 1 μM, 10 μM; p > 0.05, n = 9
Description: To evaluate the inhibition of lead 7 on endogenous KLK5 activity, media collected from cultured NS keratinocytes and healthy donor keratinocytes were incubated with lead 7 at the final concentration of 100 nM, or 1 μM, or 10 μM for one hour. Media were then concentrated, and KLK5 activity was measured. […] There were significant differences in KLK5 activity before and after treatment (p < 0.05, n = 3). […] This may be because lead 7 exerts inhibitory effects only when KLK5 activity exceeds a certain threshold, which is not reached in keratinocytes from healthy donors. It was noted that the activity of KLK5 in NS was not reduced to the levels observed in normal keratinocytes. […]
calcium signalling. […] Fluorescence excitation was set at 485 nm, and emission was recorded at 520 nm using SpectraMax® i3x plate reader. […]
Keratinocytes were seeded in 6 well plate with the density of 0.2 × 10⁶ cells per well and cultured in RM+ medium until they reached confluency. […] The enzymatic reaction was initiated by adding 100 µL of Boc-VPR-AMC substrate (final concentration 100 µM) to each well and RFU values in samples were measured. Protease activities were expressed as nmol/g by first converting RFU readings to KLK5 equivalent concentration activity using a KLK5 standard curve, followed by normalization to total protein content

[2] = test system: NS keratinocytes; assay: Transepithelial electrical resistance (TEER) assay, NS keratinocytes; format: cell-based, human; settings: 1 μM, 9 days, p < 0.05, n = 18
From the text: (§1) KLK5 regulates epidermal barrier homeostasis by targeting corneodesmosomal proteins involved in cell–cell adhesion, including desmoglein-1 (DSG1), desmocollin-1 (DSC1), and corneodesmosin (CDSN). Dysregulated KLK5 activity can accelerate the degradation of these adhesion molecules, leading to impaired corneocyte cohesion and disruption of the epithelial barrier. To assess whether control of KLK5 activity by lead 7 could improve barrier integrity, the resistance of epidermal sheets generated using NS and healthy donor keratinocytes was measured using a transepithelial electrical resistance (TEER) assay. Keratinocytes from NS keratinocyte and three healthy donors were seeded in 6-well plates and cultured in the medium with 1 μM of lead 7 or without. The medium was replaced every 3 days with fresh lead 7 added in the treated groups. TEER measurements were performed every other day, and cultures were maintained until TEER values reached a plateau (9 days).
(§2) Transepithelial Electrical Resistance (TEER) assay […]
(§3) Transepithelial electrical resistance (TEER) values in ohms (Ω) were measured using the EVOM™ Manual Resistance Meter (World Precision Instruments, cat no. EVM-MT-03-02). Background resistance was first recorded using inserts containing only medium (without cells). […]
(§4) One-way ANOVA was used for KLK5 activity study. […] TEER study data was analysed using the Wilcoxon […]

[3] = test system: healthy donor keratinocytes; assay: Transepithelial electrical resistance (TEER) assay, healthy donor keratinocytes; format: cell-based, human; settings: 1 μM, 9 days, p > 0.05, n = 54
From the text: as §1, §2, §3, §4

With `C[C@@H](O)[C@@H]1NC(=O)[C@@H]2CSSC[C@H](NC(=O)[C@H](CCC(=O)O)NC(=O)[C@@H]3CCCN3C(=O)[C@@H]3CCCN3C(=O)[C@H](CC(N)=O)NC(=O)[C@H](CO)NC(=O)[C@H](CCCNC(=N)N)NC1=O)C(=O)N[C@@H](Cc1c[nH]c3ccccc13)C(=O)N1CCC[C@H]1C(=O)N[C@@H](CC(N)=O)C(=O)NCC(=O)N[C@@H](Cc1ccccc1)C(=O)N2` [compound 7] (cyclo(GFCTRSNPPECWPN); disulfide 3-11) the “KLK5 activity before and after treatment, normal donor keratinocytes” value [1] was “no significant differences”, the “TEER, treated versus untreated NS keratinocytes” value [2] was “obvious increase in TEER values” and the “TEER, treated versus untreated healthy donor keratinocytes” value [3] was “no differences”.
